Measurements taken from patent EP0762893B1, “TREATMENT OF PLASMA” (SUOMEN PUNAINEN RISTI VERIPALVELU, priority 1994, dated 1995).

Assays:
[1] = system: fibrinogen; experiment: Inactivation of clottable fibrinogen during MB photochemical treatment of 2 ml pooled plasma samples (thromboplastin time assay); type: biochemical; conditions: 1 µmol/l of MB, TL-M 115/33 fluorescent tubes for 1 h
[2] = system: F VIII; experiment: Inactivation of F VIII activity during MB photochemical treatment of 2 ml pooled plasma samples (chromogenic substrate assay); type: biochemical; conditions: 1 µmol/l of MB, TL-M 115/33 fluorescent tubes for 1 h
[3] = Disappearance of ascorbate and urate from plasma during MB photochemical treatment (HPLC); conditions: compared with ascorbate

disappearance of urate from plasma [3] | Compound | absorbing form of MB after dilution | extent of inactivation of fibrinogen [1] | extent of inactivation of factor VIII [2]
 | CN(C)c1ccc2nc3ccc(=[N+](C)C)cc-3sc2c1 [MB, methylene blue] | quantitatively restored | about 50% | ~40%
clearly more slowly than ascorbate | O=c1[nH]c(=O)c2[nH]c(=O)[nH]c2[nH]1 [Urate, urate] |  |  | 
